{"source": "patent US20090130223A1", "about": "“COSMETIC PREPARATION WITH AQUAPORIN STIMULATORS AND THE USE THEREOF” (priority 2006, published 2009)", "test_system": "aquaporin-3 mRNA in human keratinocytes", "assay": "AQP-3 mRNA expression in human keratinocytes by quantitative RT-PCR", "format": "cell-based", "conditions": "24 h, 3% w/v glycerol glucoside in culture medium (450 mOsm), compared with 1% w/v glycerin, 2.25% w/v glucose, and 1.5% w/v glycerol glucoside + 0.5% w/v glycerin", "description": "To this end, human keratinocytes were treated in triplicate in cell culture (37° C., Medium Cambrex No. CC-3158 incl. Supplement kit No. CC-4152; +0.1 mM CaCl2) for 24 h as follows: • Untreated control (corresponds to 330 mOsm, isomolar culture medium) • Addition of 1% w/v glycerin to the culture medium (corresponds to 450 mOsm, osmotic stress) • Addition of 1.5% w/v glycerol glucoside and 0.5% w/v glycerin to the culture medium (corresponds to 450 mOsm osmotic stress, mixture ratio regarding number of particles 1:1) • Addition of 3% w/v glycerol glucoside to the culture medium (corresponds to 450 mOsm, osmotic stress) • Addition of 2.25% w/v glucose to the culture medium (corresponds to 450 mOsm, osmotic stress)\nThe different amounts used are due to the different molecular weights of the substances. The contribution to the increase in osmolarity in the culture medium depends solely on the added particle number, and this is the same in all of the tests.\nAfter harvest and lysis the entire RNA was isolated from the cells and the aquaporin-3 mRNA relatively contained was determined by means of quantitative RT-PCR.\nThe concentration indication w/v means mass per volume, wherein 1.0% w/v corresponds to one gram substance in 100 ml solution."}
{"substance": "Glyceryl glucoside", "values": [{"measurement": "expression level of the aquaporin-3 mRNA relativized on 18S rRNA (stimulating effect)", "result": "better stimulating effect than classic glycerin or glucose alone or a 1:1 mixture of glycerin and glyceryl glucoside"}]}
